The results in this text go back to patent US9738614B2, “Malignant and non-malignant disease treatment with Ras antagonists” (PISCES THERAPEUTICS, LLC, priority 2011, dated 2017).

Where two headings read alike, the source gives them in different places.

For series [1], the system named is PANC-1 cells. The series is described as follows: Cell proliferation assay for PANC-1 cells. Format: cell-based. To be noted: 1.25 μM, media with 5% serum, five days (FIG. 3). As to the method: The adult glioblastoma cell line U87MG was obtained from a commercial source (ATCC). The pancreatic cancer cell line PANC-1 was obtained from a local laboratory (Indiana University). Both lines were grown in Iscove's Modified Dulbecco's Medium with 10% fetal bovine serum (FBS) at 37° C. and 5% CO2.
Compounds (1), (2), (3), (4), and (5), which are shown and described above, were each dissolved in ethanol at 10 mg/mL. A measured portion of the solution was pipetted into a microcentrifuge tube. Then, the ethanol was evaporated from each tube using a SpeedVac®, leaving just the compound in the tube. The appropriate amount of chloroform was added to the tube to produce a 0.1 M concentration. The solutions were placed on ice and in the dark so they could be pipetted into 10- and 20-μL aliquots in 1.5 mL microcentrifuge tubes. The solutions were frozen at […] with lids closed tightly and the tubes covered with foil.
Prior to treating the cells, a tube of the test compound was removed from the freezer and placed under a biosafety hood to evaporate the chloroform in the tubes. Then, dimethyl sulfoxide (DMSO) was added to the tubes to make the correct concentration to use in the experiment (0.1 M stock). The tubes were vortexed, and warm media with 10% FBS was slowly added to make the correct working concentrations to be used in the experiment. The compounds were directly added to each well for treatment.
The cells were treated in triplicate with standard concentrations of 6.25, 12.5, 25, 50, and 100 μM of each test compound (3) and (5) and the reference compound FTS and, when needed, concentrations of 0.625, 1.25, 2.5 and 5.0 μM in media with 5% serum for five days. Then, the cells were stained with trypan blue, and the cell number per each well was determined. Again, the IC50 values were calculated using Multiplex Reader-Fit software made by MiraiBio Group, Hitachi Solutions America, Ltd. In a typical experiment, the control wells averaged 32,500 cells. The results are presented graphically in FIG. 3. […]

Series [2] relates to hematopoietic progenitor cells (cord blood low density cells). The series is described as follows: Human hematopoietic progenitor cell toxicity (colony assay). To be noted: 12 days; 25 and 2.5 μM for compound (3), 2.5 and 0.25 μM for compound (5). Type of series: cell-based. On the procedure:
Cord blood low density cells were plated at 1×10^5 cells per plate in 1 mL complete methylcellulose in the presence of each test compound (3) and (5) and incubated for 12 days in a CO2 incubator. Colony-forming unit-granulocyte (CFU-GM), burst-forming unit-erythroid (BFU-E), and mixed colonies were counted under an inverted microscope. […] The test compounds were not toxic to the hematopoietic progenitor cells.

The subject of series [3] is activated, GTP-bound form of Ras (Ras-GTP). The series is described as follows: Ras-GTP Western blot in SCF-stimulated NF-1+/- mast cells. The note with it: 10-15 μM, 3 minutes after SCF stimulation (FIG. 4A). Format: cell-based. On the procedure:
(§1) Purified populations of NF-1+/−mast cells were stimulated with a maximum stimulating concentration of stem cell factor (SCF) in the presence of a control or compound (5) at concentrations of 10-15 μM. The activated, GTP-bound form of Ras (Ras-GTP) was measured 3 minutes subsequently using Western blot analysis. […] In parallel experiments, mast cell proliferation was measured using 3H-thymidine incorporation 24 hours after SCF stimulation in the presence of a control or compound (5) at concentrations of 0-12.5 μM. […] Each asterisk in FIG. 4B represents a statistical difference relative to the control using analysis of variance. (Yang, Feng-Chun, et. al. J Clin Invest 2003, 112(12), 1851-1861; Yang, Feng-Chun, et. al. Hum Mol Genet 2006, 15(11), 1921-1930).

Series [4] relates to NF-1+/- mast cells. The series is described as follows: NF-1+/- mast cell proliferation (3H-thymidine incorporation). Type of series: cell-based. The note with it: 0-12.5 μM, 24 hours after SCF stimulation (FIG. 4B). As to the method: as §1
For series [5], the system named is ST88-14 cells. The series is described as follows: IC50 assay with ST88-14 MPNST cells. Format: cell-based, human. The note with it: 0.1 to 50 μM, two separate experiments, read-out: half-maximal effects on cell viability. On the procedure: (§2) U87MG cells were seeded in a 24-well plate, 5000 cells per well, and incubated overnight at 37° C. in serum-free media. The next day they were treated in triplicate with 50 and 100 μM of each test compound (1), (2), (3), (4), and (5) and the reference compound FTS. After five days, the cells were trypsinized (0.5%), stained with trypan blue, and counted to determine the cell number per well. The half-maximal inhibitory concentration (IC50) values were calculated using Multiplex Reader-Fit software made by MiraiBio Group, Hitachi Solutions America, Ltd. In a typical experiment, the control wells averaged 138,000 cells. The results are presented graphically in FIG. 1. The test compounds at 50 μM allowed the following U87MG cell proliferation compared to control: compound (1)—37%, compound (2)—18%, compound (3)—10%, compound (4)—40%, and compound (5)—0%. The reference compound FTS at 50 μM allowed 7% cell proliferation compared to control.
IC50 assays similar to Example 6 above were performed with ST88-14 cells derived from a MPNST removed from a patient who had NF-1. The cells have loss-of-function mutations in both copies of the NF-1 gene, neurofibromin, which is discussed further above. ST88-14 cells were grown in concentrations of compound (5) ranging from 0.1 to 50 μM in two separate experiments. […]

For series [6], the system named is sNF94.3 cells. The series is described as follows: IC50 assay with sNF94.3 MPNST cells. Format: cell-based. The note with it: Homo sapiens, 0.5 to 20 μM, read-out: half-maximal effect on viability. On the procedure: as §2
(§3) Two additional MPNST cell lines, sNF94.3 and sNFO2.2, were subjected to IC50 assays similar to Examples 6 and 11 above. Like the ST88-14 cells from Example 11, the sNF94.3 and sNFO2.2 cells came from NF-1 patients too.

The subject of series [7] is sNFO2.2 cells. The series is described as follows: IC50 assay with sNFO2.2 MPNST cells. Format: cell-based. To be noted: Homo sapiens, 0.5 to 20 μM, read-out: half-maximal effect on viability. As to the method: as §2, §3
For series [8], the system named is JW19 cells. The series is described as follows: IC50 assay with JW19 mouse MPNST cells. To be noted: 0.5 to 20 μM, read-out: half-maximal effect on viability. Format: cell-based. On the procedure: as §2
Mouse models of NF-1 related MPNST have been made. Cells from two such mice, JW16 and JW19, have been isolated and propagated. The JW16 and JW19 cells were subjected to IC50 assays similar to Example 6 above.

For the compound `CC(C)=CCC/C(C)=C/CC/C(C)=C/CSc1ccccc1C1=NCCN1` [compound (5), 2-(2-{[(2E,6E)-3,7,11-trimethyldodeca-2,6,10-trien-1-yl]sulfanyl}phenyl)-4,5-dihydro-1H-imidazole], the “PANC-1 cell proliferation compared to control” value in series [1] was found to be 56%. Also, the “toxicity to hematopoietic progenitor cells (CFU-GM, BFU-E, mixed colonies)” value in series [2] is on record as “not toxic”. The “level of Ras-GTP relative to the control” value in series [3] is on record as “significantly reduced”. Moreover, the “mast cell proliferation relative to the control” value in series [4] is reported as “reduced”. Also, the IC50 in series [5] (Homo sapiens, ST88-14, ST88-14 cells) came to 5.5 µM; in series [5] (ST88-14 cells) it was 6.6 µM; in series [6], 2.7 µM; in series [7], 2.9 µM; in series [8] it was 4 µM.
